Experimental data published in patent US20100189772A1, “Compositions of TLR ligands and antivirals” (COLEY PHARMACEUTICAL GROUP, INC, priority 2006, published 2010).
Where two headings read alike, the source gives them in different places.

How the values were obtained:
Human PBMC [1] = assay: Cytokine induction by ORN in human PBMC (ELISA of supernatants); assay type: cell-based; conditions: human PBMC (n=3); for IFN-alpha cytokine induction, 8-modified nucleotide at the ORN 5′ end: FIG. 3, compared to the unmodified ORN (SEQ ID NO:8 and 11); for IFN-alpha cytokine induction, effect of the position of 8-Oxo-rG: FIG. 2, versus control SEQ ID NO:8
Procedure: (§1) Cell purification Peripheral blood buffy coat preparations from healthy human donors were obtained from the Blood Bank of the University of Düsseldorf (Germany) and PBMC were purified by centrifugation over Ficoll-Hypaque (Sigma). Cells were cultured in a humidified incubator at 37° C. in RPMI 1640 medium supplemented with 5% (v/v) heat inactivated human AB serum (BioWhittaker) or 10% (v/v) heat inactivated FCS, 2 mM L-glutamine, 100 U/ml penicillin and 100 μg/ml streptomycin (all from Sigma).
(§2) Cytokine detection PBMC were resuspended at a concentration of 5×10^6 cells/ml and added to 96 well round-bottomed plates (250 μl/well). PBMC were incubated with various ODN, ORN or nucleoside concentrations and culture supernatants (SN) were collected after the indicated time points. If not used immediately, SN were stored at −20° C. until required. For inhibitory experiments, cells were stimulated with the indicated TLR ligand concentration and nucleoside or ORN added. In some experiments, the second modified ORN was added 1 h after the start of the cell culture.
(§3) Amounts of cytokines in the SN were assessed using a commercially available ELISA Kit for IL-12p40 (from BD Biosciences, Heidelberg, Germany), IFN-γ and TNF-α (from Diaclone, Besancon, France) or an in-house ELISA for IFN-α developed using commercially available antibodies (PBL, New Brunswick, N.J., USA). For analysis of a broad set of cytokines and chemokines, multiplex analysis with a luminex system from Bio-Rad (Munich, Germany) and Multiplex kits from Biosource (Solingen, Germany) was performed.
Human PBMC (n=3) were stimulated with 8-Oxo-rG (a C-8 substituted guanosine) modified ORN (SEQ ID NO:1-4) and an unmodified ORN (SEQ ID NO:8). Supernatants were collected and cytokines IFN-alpha (FIG. 1a), IL-12p40 (FIG. 1b) and TNF-alpha (FIG. 1c) were measured.
Human PBMC (n=3) were stimulated with the indicated ORN with a single 8-Oxo-rG at different positions of the ORN (SEQ ID NO:1-4) and the […] negative control (SEQ ID NO:8). Supernatants were collected and IFN-alpha measured.
Human PBMC (n=3) were stimulated with the indicated ORN with a single 8-Oxo-rG/Dg (SEQ ID NO:1, 5), 8-Bromo-dG (SEQ ID NO:7) or Immunosine (Isatoribine) (SEQ ID NO:6) (with a 5′-5′ linkage) at the 5′ end of the ORN and IFN-alpha measured. […] Similar data were obtained for 8-Bromo-rG (data not shown). In addition, even the linkage of a 8-modified dA or rA (data not shown) results in an, although only slight increase of the cytokine induction.

T cell IFN-γ production = assay: In vivo treatment of mice with CpG ODN and/or RBV, ex vivo anti-CD3 induced IFN-gamma production of inguinal lymph node cells (ELISA); conditions: for T cell IFN-γ production ex-vivo after in vivo treatment with a single agent: SEQ ID NO. 14 100 micrograms SC or RBV 0.5 mg/kg IP alone, lymph node Day 6, ELISA Day 8, FIG. 4
Procedure: (§4) We repeated the experiment with a lower dose of RBV in vivo (0.5 mg/kg IP).
(§5) Mice were injected with SEQ ID NO. 14 (100 micrograms SC), RBV (0.5 mg/kg IP) or SEQ ID NO. 14 and RBV. RBV was administered in vivo either at day 0 or day 5 and CpG was administered at day O, Samples were isolated at Day 6 from the inguinal lymph node and maintained in medium on anti-CD3 coated plated in the presence of 1-16 μM RBV. On Day 8 an ELISA assay was performed to detect IFN-gamma.

[2] = tested on: bone marrow (BM) derived dendritic cells (DCs); assay: Cytokine production of bone marrow derived dendritic cells treated with SEQ ID NO. 14 and/or RBV; assay type: cell-based
Procedure: Similar experiments were performed using bone marrow (BM) derived dendritic cells (DCs). BM-derived DC maintained in GM-CSF were treated with SEQ ID NO. 14, RBV (1 μM, 5 μM, 10 μM, 100 μM, or 120 μM) or with SEQ ID NO. 14 and RBV. At 4, 24 and 72 hours samples were tested for cytokine, IL-10 (FIG. 6), IL-12p40 (FIG. 7A), IL-12p70 (FIG. 7B) and TNF (data not shown). No effects of RBV alone at 120 μM were observed. SEQ ID NO. 14 induced IL-12, IL-10 and TNF. RBV decreased IL-10 and TNF but increased IL-12 (at 72 h only). RBV decreased SEQ ID NO. […].

C26 SC mouse model = assay: C26 SC mouse cancer model, survival; assay type: in vivo; conditions: 100 micrograms ODN intra/peri tumor at days 7, 14, 21; 0.5 mg/kg RBV IP on same days; as of days 30-40; FIG. 8
Procedure: C26 SC mouse model was treated with SEQ ID NO. 14 and RBV (100 micrograms ODN intra/peri tumor at days 7, 14, 21 and 0.5 mg/kg RBV IP on same days).

Human PBMC [3] = assay: Effect of Ribavirin on CpG ODN-induced cytokines in human PBMC co-culture; assay type: cell-based; conditions: for IC50: Homo sapiens, PBMC, calculated IC50 upon addition of Ribavirin to cultures containing 1 μM SEQ ID NO: 13
Procedure: as §1, §2, §3
The observations were particularly noted at lose doses of Ribavirin.

[4] = tested on: CD3-mediated IFN-γ production; assay: Ex vivo anti-CD3 stimulation of lymph node cells in the presence of RBV, IFN-gamma ELISA; assay type: cell-based, Mice
Procedure: as §4, §5
The ex vivo effect of RBV on CD3-mediated IFN-γ production independently of prior ODN/RBV treatment was examined. Similar to the data described above, low concentrations of RBV in vitro increased IFN-γ levels independently of previous in vivo treatments (FIG. 5A).

[5] = SEQ ID NO. 14 alone, BM-derived DC in GM-CSF
[6] = human PBMC stimulated with CpG ODN (SEQ ID NO:15 as printed), increasing doses of Ribavirin

For “iIM*rU*rU*rG*rU*rG*rU (5' isatoribine via 5'-5' linkage, phosphorothioate, as printed in the source, key not given here) [SEQ ID NO:6, ORN with Immunosine (Isatoribine) (with a 5′-5′ linkage) at the 5′ end]”, the “IFN-alpha cytokine induction, 8-modified nucleotide at the ORN 5′ end” value (“IFN-alpha cytokine induction … at the ORN 5′ end” below) (Human PBMC [1]) was “increased cytokine induction”.

“O*rU*rU*rG*rU*rG*rU (8-oxo-dG at 5' end, phosphorothioate linkages, as printed in the source, key not given here) [SEQ ID NO:5, ORN with a single 8-Oxo-rG/Dg at the 5′ end]” was tested, and the “IFN-alpha cytokine induction … at the ORN 5′ end” value (Human PBMC [1]) was “increased cytokine induction”.

With “TCCATGACGTTCCTGATGC (chemistry not given here) [SEQ ID NO. 14, CpG ODN]” the “T cell IFN-γ production ex-vivo after in vivo treatment with a single agent” value (T cell IFN-γ production) was “increased”, the IL-10 induction [2, 5] was “induced” and the IL-12 induction [2, 5] was “induced”. The TNF induction [2, 5] was “induced” and the survival (C26 SC mouse model) was “prolonged survival”.

For NC(=O)c1ncn([C@@H]2O[C@H](CO)[C@@H](O)[C@H]2O)n1 [Ribavirin], the IC50 (Human PBMC [3]; read-out: IC50 IFN-alpha) was 1000 µM, the IC50 (Human PBMC [3]; read-out: IC50 IL-6) was 320 µM and the IC50 (Human PBMC [3]; read-out: IC50 IL-10) was 58 µM. The “effect on the CpG-induced IL10 induction” value (Human PBMC [3]; [6]) was “suppressive effect”, the “suppressive effect with respect to IFN-alpha” value (Human PBMC [3]; [6]) was “not observed” and the “effect of RBV on IFN-γ production when CpG ODN was also injected” value (T cell IFN-γ production; RBV 0.5 mg/kg IP with SEQ ID NO. 14 100 micrograms SC, FIG. 4B) was “greatly enhanced”. The “T cell IFN-γ production ex-vivo after in vivo treatment with a single agent” value (T cell IFN-γ production) was “small effect”, the “ex vivo IFN-γ CD3-induced production after in vivo RBV” value (T cell IFN-γ production; initial experiment, 10 mg/kg intraperitoneal (IP) RBV) was “no effect in vivo of RBV and possibly even a slight decrease” and the “IFN-γ production, ex vivo anti-CD3 stimulation in the presence of RBV” value ([4]; initial experiment, only at rather low concentrations of RBV (1-5 μM)) was “increase IFN-γ production”. For the same compound, the “CD3-mediated IFN-γ levels, RBV in vitro” value ([4]; low concentrations of RBV in vitro, independently of previous in vivo treatments, FIG. 5A) was “increased”, the “effect of RBV on SEQ ID NO. 14-induced IL-12p40” value ([2]; BM-derived DC, FIG. 7A) was “decreased” and the “effect of RBV on SEQ ID NO. 14-induced IL-12p70” value ([2]; BM-derived DC, FIG. 7B) was “increased IL-12p70 (slightly)”. For the same compound, the “effect of RBV on SEQ ID NO. 14-induced IL-10” value ([2]; BM-derived DC, RBV 1-120 μM with SEQ ID NO. 14, FIG. 6) was “decreased”, the “effect of RBV on IL-12” value ([2]; BM-derived DC, RBV with SEQ ID NO. 14, at 72 h only) was “increased” and the “effect of RBV on TNF” value ([2]; BM-derived DC, RBV with SEQ ID NO. 14, data not shown) was “decreased”. For the same compound, the “cytokines (IL-10, IL-12p40, IL-12p70, TNF), RBV alone” value ([2]; RBV alone at 120 μM, 4, 24 and 72 hours) was “No effects”.

In the case of “rO*rU*rU*rG*rU*rG*rU (8-oxo-rG, phosphorothioate linkages, as printed in the source, key not given here) [SEQ ID NO:3, ORN with a single 8-Oxo-rG at the 5′ position]”, the “IFN-alpha cytokine induction, effect of the position of 8-Oxo-rG” value (Human PBMC [1]) is reported as “increased cytokine induction”.

With rO*rU*rU*rO*rU*rO*rU [SEQ ID NO:1] the “IFN-alpha cytokine induction, effect of the position of 8-Oxo-rG” value (Human PBMC [1]) was “increased cytokine induction” and the “IFN-alpha cytokine induction … at the ORN 5′ end” value (Human PBMC [1]) was “increased cytokine induction”.
